From US20040137532A1, “Antibody competition test (act) for the qualitative and conformation dependent quantitative detection of the conformation changes of p-glycoprotein and other cell surface receptors, pumps and proteins, and uses thereof” (priority 2001, published 2004)
Like-named read-outs stand apart in the source and are kept apart here.

Target: P-glycoprotein (Pgp) (Homo sapiens, UniProt P08183)
Details: for conformation change which prevents binding of MM12.10 after UIC2 (efficient in ACT): cells pretreated with modulator/substrate, then UIC2, then FITC-MM12.10, KB-V1 and NIH 3T3 MDR1 cells
Method: The cells were trypsinized as usual, washed twice with PBS (phosphate buffered saline, pH 7,4). 10^6 cells/1 ml PBS (plus 8 mM glucose), pre-incubated for 20 minutes at 37° C. with different drugs, modulators, and without washing the cells, the first (“A”) monoclonal antibody was added to the samples. After a further 30 minutes incubation (at 37° C.) an FITC or 5-sFx conjugated second (“B”) antibody was added to the samples (again without washing the cells), and were incubated at 37° C. for another 30 minutes. In case of the UIC2-shift test the cells were incubated with UIC2 antibody, washed twice, and incubated with goat anti-mouse IgG2a FITC conjugate (F/P=4,3, Sigma) on ice in 100 μl PBS for 45 minutes. The samples washed twice were resuspended in 500 μl PBS, and analyzed in flow cytometer. The antibody concentrations used were: 8 μg/ml MRK16, MC57, MM8.15, MM12.10 and 10 μg/ml UIC2. Daunorubicine (DNR) and calcein accumulation tests: see Goda, K. et al.: Practical guide to physical analysis of cell surface receptors, Ed.: Krasznai, Z. and Mátyus, L., pp. 110-125 (1998); Homolya, L., Holló, Zs., Germann, U. A., Pastan, L, Gottesman, M. M. and Sarkadi, B.: Fluorescent cellular indicators are extruded by the multidrug resistance protein. Journal of Biological Chemistry 268 21493-21496 (1993); Holló, Zs., Homolya, L., Davis, C. W. and Sarkadi, B.: Calcein accumulation as a fluorimetric functional assay of the multidrug trasporter. Biochimica et Biophysica Acta 1191 384-388 199420,21.
The average fluorescence intensities per cell were determined by Becton Dickinson FACScan (Mountain View, Calif.). Dead cells were excluded from the analysis by propidium-iodate staining. The fluorescence signals were plotted on logarithmic scale, the two-level analysis was carried out by BDIS CellQuest and FloWin softwares (SoftFlow Ltd., Pécs, Hungary).
The cells are then treated with the first (“A”) antibody (incubation with or without UIC2, MM8.1 or MC57) for 30 minutes, and the cells are labelled with FITC-MM12.10 (“B”) antibody The curves are flow cytometry histograms from representative measurement each. Continous line: control without “A”; bold line: “A”=UIC2; dotted line: “A”=MM8.15 (a-d) or MC57 (e-f). Binding of the “A” antibodies was verified in two independent experiments, with indirect immunfluorescence.
The ratio of average FITC MM12.10 fluorescence intensities, with and without UIC2 pretreatment give the Rcompetition values (black columns). Cells were pretreated for 20 minutes with reverting agents, and incubated for further 20 minutes with UIC2 antibody, finally the FITC-MM12.10 antibody was used (further 30 minutes incubation). Cells were not washed between the incubation steps. […] UIC2-shift was detected by indirect immunfluorescence; the white columns show the ratio of the average fluorescence intensities detected with and without the reverting treatments (Rshift). On the insert figure the same UIC2-shift data are plotted on magnified scale. The average of 4-6 independent measurements (±SEM) are shown.
ACT tests were carried out on NIH3T3 MDR1 cells, with different antibody combinations. Following UIC2 or MM12.10 (not conjugated with stain) pretreatment the cells are labelled with FITC or 5sFx conjugated MM12.10, UIC2, MRK16 and MM18.15 antibodies. Before adding the antibodies the cells are pretreated with CSA (grey columns) or not (black columns).

Sequence of P-glycoprotein (Pgp) (P08183 whole entry): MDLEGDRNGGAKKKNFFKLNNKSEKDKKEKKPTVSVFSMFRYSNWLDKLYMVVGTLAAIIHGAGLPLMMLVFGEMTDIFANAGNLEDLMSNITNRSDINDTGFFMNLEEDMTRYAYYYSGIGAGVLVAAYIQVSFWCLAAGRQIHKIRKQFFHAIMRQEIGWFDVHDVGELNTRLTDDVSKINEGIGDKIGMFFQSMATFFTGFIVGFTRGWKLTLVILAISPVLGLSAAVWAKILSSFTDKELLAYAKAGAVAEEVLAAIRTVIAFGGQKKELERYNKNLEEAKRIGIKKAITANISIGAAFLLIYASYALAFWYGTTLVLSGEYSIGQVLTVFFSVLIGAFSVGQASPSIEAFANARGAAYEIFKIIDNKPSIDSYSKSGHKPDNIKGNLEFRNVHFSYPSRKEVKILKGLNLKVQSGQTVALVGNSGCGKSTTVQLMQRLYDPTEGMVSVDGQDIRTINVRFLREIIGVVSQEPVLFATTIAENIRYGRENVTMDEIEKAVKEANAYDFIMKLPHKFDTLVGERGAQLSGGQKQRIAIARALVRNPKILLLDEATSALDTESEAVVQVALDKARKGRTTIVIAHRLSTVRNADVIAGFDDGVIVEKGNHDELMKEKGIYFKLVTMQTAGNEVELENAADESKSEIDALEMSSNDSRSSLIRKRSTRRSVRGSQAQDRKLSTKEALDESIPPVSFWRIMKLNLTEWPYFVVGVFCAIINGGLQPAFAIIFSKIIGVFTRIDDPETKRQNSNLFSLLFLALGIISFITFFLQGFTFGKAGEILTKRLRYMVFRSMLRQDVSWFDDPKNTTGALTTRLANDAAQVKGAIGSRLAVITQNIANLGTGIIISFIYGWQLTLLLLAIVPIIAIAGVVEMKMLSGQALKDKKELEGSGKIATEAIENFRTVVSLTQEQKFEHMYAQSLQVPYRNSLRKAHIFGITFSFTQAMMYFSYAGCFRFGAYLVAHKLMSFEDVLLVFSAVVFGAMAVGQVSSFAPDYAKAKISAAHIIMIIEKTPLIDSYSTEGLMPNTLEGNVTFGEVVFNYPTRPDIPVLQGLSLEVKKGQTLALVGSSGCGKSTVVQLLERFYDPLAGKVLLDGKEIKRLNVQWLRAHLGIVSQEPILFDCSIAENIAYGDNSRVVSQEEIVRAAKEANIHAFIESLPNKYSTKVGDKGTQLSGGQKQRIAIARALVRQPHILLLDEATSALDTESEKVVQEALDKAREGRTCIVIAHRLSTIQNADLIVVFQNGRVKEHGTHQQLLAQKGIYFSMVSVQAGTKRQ

Compound | conformation change which prevents binding of MM12.10 after UIC2 (efficient in ACT) | conformation change which prevents binding of MM12.10 after UIC2 (efficient in ACT) (listed as valinomycin) | Rcompetition value in ACT after ATP depletion
gramicidin | doesn't |  | 
CC(C)[C@@H]1NC(=O)[C@H](C)OC(=O)[C@@H](C(C)C)NC(=O)[C@@H](C(C)C)OC(=O)[C@H](C(C)C)NC(=O)[C@H](C)OC(=O)[C@@H](C(C)C)NC(=O)[C@@H](C(C)C)OC(=O)[C@H](C(C)C)NC(=O)[C@H](C)OC(=O)[C@@H](C(C)C)NC(=O)[C@@H](C(C)C)OC1=O [valinomycine] | accomplishes the conformation change | efficient | 
CC[C@H]1/C=C/C=C/C[C@@H](C)[C@H](O)[C@@](C)(O)C(=O)[C@@H](C)[C@H](O)[C@@H](C)C(=O)[C@@H](C)[C@H](O)[C@@H](C)/C=C/C(=O)O[C@@H]2[C@H](C)[C@H](CC1)O[C@]1(CC[C@H](C)[C@H](C[C@@H](C)O)O1)[C@H]2C [oligomicin] |  |  | big
C/C=C/C[C@@H](C)C(=O)[C@H]1C(=O)N[C@@H](C(C)C)C(=O)N(C)CC(=O)N(C)[C@@H](CC(C)C)C(=O)N[C@@H](C(C)C)C(=O)N(C)[C@@H](CC(C)C)C(=O)N[C@@H](C)C(=O)N[C@H](C)C(=O)N(C)[C@@H](CC(C)C)C(=O)N(C)[C@@H](CC(C)C)C(=O)N(C)[C@@H](C(C)C)C(=O)N1C [PSC 833] | accomplishes the conformation change |  | 
